Results from patent US7371841B2, “Methods of modulating cold sensory perception” (Regents of the University of California, priority 2002, dated 2008).
Read-outs that look alike come from different tables or passages of the source. One block for each compound: values may come before it.

How the values were obtained:
trigeminal neurons [1] = experiment: Whole-cell patch-clamp recordings of dissociated trigeminal neurons; format: cell-based, rat; settings: for membrane currents elicited in trigeminal neurons: compared to an equivalent dose of menthol
Experimental: Trigeminal ganglia were removed from newborn S/D rats, placed in ice-cold culture medium (MEM Eagle's with Earle's BSS supplemented with 10% horse serum, vitamins, penicillin/streptomycin and L-glutamine), cleaned of connective tissue/blood vessels and diced into 4-5 pieces. Ganglia were then transferred to 0.125% collagenase P (Boehringer) solution in CMF Hank's, shaken gently at 37° C. for 20 (P0 animals) to 30 min (P4 animals), pelleted, and resuspended in 0.05% STV at 37° C. for 2 min. Culture medium was added to inhibit enzymatic activity and ganglia were triturated gently with a fire-polished Pasteur pipette. Neurons were enriched by density gradient centrifugation as described (see, e.g., Eckert et al., J. Neurosci. Methods 77:183-90, 1997). Cells were resuspended in complete culture medium (MEM Eagle's/Earle's BSS with 10% horse serum, vitamins, penicillin/streptomycin, L-glutamine and 100 ng/ml NGF 7S (Invitrogen) and plated onto glass coverslips coated with PLO (1 mg/ml, Sigma) and laminin (5 μg/ml, Invitrogen). Cultures were maintained at 37° C. in 5% CO2 and examined 1-2 days after plating. Ca^2+ microfluorimetry was carried out as described (Caterina et al., Nature 389:816-24 (1997)). For cell selection prior to patch-clamp analysis, CaCl2 and pluronic acid were omitted from the loading buffer (nominally Ca^2+-free CIB). Cells in the recording chamber were perfused by gravity using the VC-6 valve control system (Warner Inst.).
Trigeminal neurons responding to […] menthol with an increase in intracellular Ca2+ were selected for patch-clamp recordings. HEK293 cells were cultured in DMEM with 10% fetal bovine serum and co-transfected (Lipofectamine 2000, Invitrogen) with 1 μg CMR1 plasmid and 0.1 μg enhanced green fluorescence reporter plasmid to identify transfected cells. Cells were plated onto PLO-coated coverslips the next day and examined two days after transfection. Gigaseals were formed with pipettes (Garner Glass type 7052, ID 1.1, OD 1.5) having a resistance of 3-5 MΩ in standard pipette solution. Whole-cell voltage clamp was performed at a holding potential of −60 mV with a 200 ms voltage ramp from −120 mV to +80 mV at 3.6 Hz. Data were acquired using Pulse-Pulsefit (HEKA GmbH) software. Recordings were filtered at 5 kHz and sampled at 20 kHz. Pipette solution for neuronal experiments contained (in mM) 140 CsCl, 1 EGTA, 0.6 MgCl2, 10 HEPES, pH 7.4 (adjusted with CsOH). Standard Ca^2+-free bath solution for whole-cell recordings contained (in mM) 140 NaCl, 4 KCl, 2 MgCl2, 100 nM TTX (Sigma), 10 TRIS, pH 7.4 (adjusted with HCl) with or without 100 nM dendrotoxin I (Sigma). For ion replacement experiments, pipette solution contained (in mM) 140 KCl, 5 CsCl, 1 EGTA, 0.6 MgCl2, 1 4-aminopyridine, 10 HEPES, pH 7.4 (adjusted with KOH). Bath solution contained (in mM) 140 NaCl, 4 KCl, 2 MgCl2, 100 nM TTX, 100 nM dendrotoxin I, 100 nM apamine (Sigma), 100 nM carybdotoxin (Sigma), 1 μω-conotoxin MVIIC, 1 μM GVIA (Latoxan), 10 TRIS, pH 7.4 (adjusted with HCl). For monovalent cation permeability experiments perfusate contained (in mM) 140 NaCl (or 140 KCl or 140 NMDG), 100 nM TTX, 1 μM nitrendipine (Sigma), 10 HEPES, 10 glucose, pH 7.4 (adjusted with NaOH, KOH or HCl, respectively). For divalent cation permeability experiments perfusate contained (in mM) 125 NMDG, 10 CaCl2, 100 nM TTX, 1 μM nitrendipine, 10 HEPES, 10 glucose, pH 7.4 (adjusted with HCl). […]

trigeminal neurons [2] = experiment: Calcium imaging (Fura-2) of dissociated trigeminal neurons; format: cell-based, rat; settings: capsaicin 1 μM
Experimental: Trigeminal ganglia were removed from newborn S/D rats, placed in ice-cold culture medium (MEM Eagle's with Earle's BSS supplemented with 10% horse serum, vitamins, penicillin/streptomycin and L-glutamine), cleaned of connective tissue/blood vessels and diced into 4-5 pieces. Ganglia were then transferred to 0.125% collagenase P (Boehringer) solution in CMF Hank's, shaken gently at 37° C. for 20 (P0 animals) to 30 min (P4 animals), pelleted, and resuspended in 0.05% STV at 37° C. for 2 min. Culture medium was added to inhibit enzymatic activity and ganglia were triturated gently with a fire-polished Pasteur pipette. Neurons were enriched by density gradient centrifugation as described (see, e.g., Eckert et al., J. Neurosci. Methods 77:183-90, 1997). […]

CMR1 [3] = molecular target: T1, CMR1 (Rattus norvegicus, UniProt Q8R455, N449H); experiment: Two-electrode voltage-clamp of Xenopus oocytes expressing the cloned cold/menthol receptor; format: cell-based; design: open reading frame of 3312 bp that is predicted to encode a protein of 1104 amino acids; expressed in transfected cells; host or cells: Xenopus laevis oocytes (cRNA injection); settings: for electrophysiological response of receptor-expressing oocytes: menthone, camphor, cyclohexanol applied near limits of solubility (>500 μM); for EC50: room temperature, voltage clamp at -60 mV
Experimental: cRNA transcripts were synthesized and injected into Xenopus laevis oocytes as described (Brake, supra). Two-electrode voltage-clamp recordings were performed 2-7 days post-injection. Dose-response curves for cooling compounds were performed at room temperature (22-24° C.). AG-3-5 (icilin) was provided by Dr. E. Wei, University of California, Berkeley. Temperature ramps were generated by heating (˜35° C.) or cooling (˜4° C.) the perfusate in a Harvard coil and monitoring temperature changes with a thermister placed near the oocyte.

CMR1 [4] = molecular target: T1, CMR1; experiment: Whole-cell patch-clamp of CMR1-transfected HEK293 cells; format: cell-based; design: open reading frame of 3312 bp that is predicted to encode a protein of 1104 amino acids; expressed in transfected cells
Experimental: Trigeminal neurons responding to […] menthol with an increase in intracellular Ca2+ were selected for patch-clamp recordings. HEK293 cells were cultured in DMEM with 10% fetal bovine serum and co-transfected (Lipofectamine 2000, Invitrogen) with 1 μg CMR1 plasmid and 0.1 μg enhanced green fluorescence reporter plasmid to identify transfected cells. Cells were plated onto PLO-coated coverslips the next day and examined two days after transfection. Gigaseals were formed with pipettes (Garner Glass type 7052, ID 1.1, OD 1.5) having a resistance of 3-5 MΩ in standard pipette solution. Whole-cell voltage clamp was performed at a holding potential of −60 mV with a 200 ms voltage ramp from −120 mV to +80 mV at 3.6 Hz. Data were acquired using Pulse-Pulsefit (HEKA GmbH) software. Recordings were filtered at 5 kHz and sampled at 20 kHz. Pipette solution for neuronal experiments contained (in mM) 140 CsCl, 1 EGTA, 0.6 MgCl2, 10 HEPES, pH 7.4 (adjusted with CsOH). Standard Ca^2+-free bath solution for whole-cell recordings contained (in mM) 140 NaCl, 4 KCl, 2 MgCl2, 100 nM TTX (Sigma), 10 TRIS, pH 7.4 (adjusted with HCl) with or without 100 nM dendrotoxin I (Sigma). For ion replacement experiments, pipette solution contained (in mM) 140 KCl, 5 CsCl, 1 EGTA, 0.6 MgCl2, 1 4-aminopyridine, 10 HEPES, pH 7.4 (adjusted with KOH). Bath solution contained (in mM) 140 NaCl, 4 KCl, 2 MgCl2, 100 nM TTX, 100 nM dendrotoxin I, 100 nM apamine (Sigma), 100 nM carybdotoxin (Sigma), 1 μω-conotoxin MVIIC, 1 μM GVIA (Latoxan), 10 TRIS, pH 7.4 (adjusted with HCl). For monovalent cation permeability experiments perfusate contained (in mM) 140 NaCl (or 140 KCl or 140 NMDG), 100 nM TTX, 1 μM nitrendipine (Sigma), 10 HEPES, 10 glucose, pH 7.4 (adjusted with NaOH, KOH or HCl, respectively). For divalent cation permeability experiments perfusate contained (in mM) 125 NMDG, 10 CaCl2, 100 nM TTX, 1 μM nitrendipine, 10 HEPES, 10 glucose, pH 7.4 (adjusted with HCl). […] Bath solution for on-cell single channel experiments contained (in mM): 150 NaCl, 1 MgCl2, 10 TRIS. Pipette solution for on-cell single channel experiments contained (in mM): 150 NaCl, 1 MgCl2, 0.1 EGTA, 10 TRIS and 5 or 25 μM menthol. Recordings were performed at 22° C. unless noted otherwise. Temperature ramps were generated by cooling or heating the perfusate in a jacketed coil (Harvard Inst.) connected to a thermostat. Temperature in the proximity of the patched cell was measured using a miniature thermocouple (type MT-29/2, Physitemp) and sampled using an ITC-18 A/D board (Instrutech) and Pulse software. Permeability ratios for monovalent cations to Na (PX/PNa) were calculated according to: PX/PNa=exp(ΔErev(Na-X)F/RT), where ΔErev(Na-X) equals the reversal potential change, F the Faraday's constant, R the universal gas constant and T the absolute temperature. For measurements of Ca^2+ permeability PCa/PNa was calculated according to Lewis, C. A. J. Physiol. 286:417-45, 1979, (equation A6).

[5] = normalized to 500 μM menthol, read-out: EC50 of evoked membrane currents

T1 sequence (Q8R455 whole entry N449H): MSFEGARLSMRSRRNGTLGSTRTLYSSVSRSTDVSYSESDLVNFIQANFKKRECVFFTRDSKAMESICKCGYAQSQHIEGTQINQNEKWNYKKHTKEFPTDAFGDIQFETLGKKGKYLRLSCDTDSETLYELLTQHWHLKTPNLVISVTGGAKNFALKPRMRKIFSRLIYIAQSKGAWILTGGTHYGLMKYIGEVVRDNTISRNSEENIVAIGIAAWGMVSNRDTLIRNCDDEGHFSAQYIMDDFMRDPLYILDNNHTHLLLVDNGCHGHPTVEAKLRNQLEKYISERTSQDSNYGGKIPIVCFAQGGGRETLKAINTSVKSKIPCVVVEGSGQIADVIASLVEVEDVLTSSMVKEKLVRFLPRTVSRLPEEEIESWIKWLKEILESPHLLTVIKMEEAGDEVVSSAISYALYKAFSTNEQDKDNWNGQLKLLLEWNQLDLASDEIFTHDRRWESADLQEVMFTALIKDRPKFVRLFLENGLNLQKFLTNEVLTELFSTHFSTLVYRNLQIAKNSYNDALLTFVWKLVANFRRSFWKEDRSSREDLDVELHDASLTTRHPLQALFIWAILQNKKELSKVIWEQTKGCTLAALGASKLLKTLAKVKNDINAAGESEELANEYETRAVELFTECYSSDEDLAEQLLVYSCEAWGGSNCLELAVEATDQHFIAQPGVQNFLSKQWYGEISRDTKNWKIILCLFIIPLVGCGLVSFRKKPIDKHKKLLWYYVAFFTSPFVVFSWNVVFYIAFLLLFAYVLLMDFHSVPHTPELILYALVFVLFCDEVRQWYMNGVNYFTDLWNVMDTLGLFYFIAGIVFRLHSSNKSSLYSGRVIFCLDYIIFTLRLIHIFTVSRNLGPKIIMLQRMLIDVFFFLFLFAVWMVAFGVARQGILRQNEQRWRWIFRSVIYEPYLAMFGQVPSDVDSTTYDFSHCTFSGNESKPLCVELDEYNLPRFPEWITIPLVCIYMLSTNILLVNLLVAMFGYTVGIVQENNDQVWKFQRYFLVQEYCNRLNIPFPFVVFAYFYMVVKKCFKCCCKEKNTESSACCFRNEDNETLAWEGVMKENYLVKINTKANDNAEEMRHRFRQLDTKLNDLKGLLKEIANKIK

Structure (SMILES): CC(C)[C@@H]1CC[C@@H](C)CC1=O [menthone]
membrane currents elicited in trigeminal neurons (trigeminal neurons [1]): very small currents

Structure (SMILES): CC1CCC(C(C)C)C(O)C1 (stereo not shown) [menthol]
thermal threshold of cold-evoked currents in the presence of the compound (trigeminal neurons [1]; 10 μM menthol, threshold without menthol 27.1±0.5° C., n=4): 29.6±0.3 °C
EC50 (trigeminal neurons [1]; Rattus norvegicus, Neuron, room temperature, Vhold=-60 mV, currents normalized to 1 mM menthol, read-out: half-maximal effective concentration (EC50) of evoked inward currents): 80 ± 2.4 µM
Hill coefficient (η) (trigeminal neurons [1]; fit of concentration-response data to the Hill equation): 2.2
desensitization: decrease in peak current between first and second application (CMR1 [4]; 2.5 mM extracellular Ca2+, n=3): 53.9±1.7%
desensitization: decrease in peak current between first and second application (CMR1 [4]; nominally calcium-free bath solution, n=3): 9.1±7%
effect on cold-evoked currents (CMR1 [4]; sub-activating dose 10 μM menthol): markedly potentiated
electrophysiological response of receptor-expressing oocytes (CMR1 [3]): Robust responses
EC50 (CMR1 [3]; [5]): 66.7 ± 3.3 µM
saturation temperature of cold-activated currents in the presence of the compound (CMR1 [3]; sub-activating menthol (20 mM printed), without menthol 8.2±0.3° C., n=7): 15.6±0.4 °C
threshold temperature of cold-activated currents in the presence of the compound (CMR1 [3]; sub-activating menthol (20 mM printed), without menthol 25.8±0.4° C., n=7): 29.7±0.3 °C

Structure (SMILES): OC1CCCCC1 [cyclohexanol]
membrane currents elicited in trigeminal neurons (trigeminal neurons [1]): no effect

More lines, main results first:

electrophysiological response of receptor-expressing oocytes (CMR1 [3]): did not elicit responses
Structure (SMILES): COc1cc(CNC(=O)CCCC/C=C/C(C)C)ccc1O [capsaicin]
fraction of menthol/cold-sensitive neurons also activated (trigeminal neurons [2]): 54.5±6.1%

electrophysiological response of receptor-expressing oocytes (CMR1 [3]): little or no effect
Structure (SMILES): CC12CCC(CC1=O)C2(C)C (stereo not shown) [camphor]

activity in the absence of extracellular calcium (CMR1 [4]; no extracellular calcium): essentially inactive
efficacy compared to menthol (CMR1 [3]): ~2.5 fold
electrophysiological response of receptor-expressing oocytes (CMR1 [3]): Robust responses
potency relative to menthol (CMR1 [3]; ratio of EC50 values): ~200 fold
EC50 (CMR1 [3]; [5]): 0.36 ± 0.03 µM
Structure (SMILES): O=C1NC(c2cccc([N+](=O)[O-])c2)=CCN1c1ccccc1O [icilin]
desensitization of evoked currents relative to peak currents (CMR1 [4]; 20 s after application, n=3): 78.8±17%

EC50 (CMR1 [3]; read-out: potency (EC50) of evoked membrane currents): 3400 ± 400 µM
Structure (SMILES): CC12CCC(CC1)C(C)(C)O2 [Eucalyptol]
